Our source for the Kd values is US20240109865A1, “INDAZOLE COMPOUNDS AS KINASE INHIBITORS” (TYRA BIOSCIENCES, INC., priority 2020, published 2024).

Some results are limits rather than exact numbers.

Experiment in all cases: Kinase assay, binding constants (Kd), kinase-tagged T7 phage, qPCR
Background: Real-time PCR tracks product formation cycle by cycle.

One experiment concerns the target FGFR3 (V555M) (Homo sapiens (Human), UniProt P22607, V555M). The following applies: V555M mutant. The method, boiled down:
(§1)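 Kinase-tagged T7 phage (grown in BL21-derived E. coli) competed with test compound for immobilized biotinylated ligand on streptavidin beads. Kds came from an 11-point 3-fold dilution series at 0.9% final DMSO. Bound kinase was eluted with non-biotinylated ligand and quantified by qPCR, with Hill slope fixed at −1.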

Another experiment concerns the target FGFR3 (Homo sapiens (Human), UniProt P22607). The method, boiled down: as §1
For a further experiment, the target named is FGFR1 (Homo sapiens (Human), UniProt P11362). The method, boiled down:
as §1

Another experiment deals with FGFR4 (Homo sapiens (Human), UniProt P22455). The method, boiled down: as §1
FGFR4, sequence (P22455 22-802): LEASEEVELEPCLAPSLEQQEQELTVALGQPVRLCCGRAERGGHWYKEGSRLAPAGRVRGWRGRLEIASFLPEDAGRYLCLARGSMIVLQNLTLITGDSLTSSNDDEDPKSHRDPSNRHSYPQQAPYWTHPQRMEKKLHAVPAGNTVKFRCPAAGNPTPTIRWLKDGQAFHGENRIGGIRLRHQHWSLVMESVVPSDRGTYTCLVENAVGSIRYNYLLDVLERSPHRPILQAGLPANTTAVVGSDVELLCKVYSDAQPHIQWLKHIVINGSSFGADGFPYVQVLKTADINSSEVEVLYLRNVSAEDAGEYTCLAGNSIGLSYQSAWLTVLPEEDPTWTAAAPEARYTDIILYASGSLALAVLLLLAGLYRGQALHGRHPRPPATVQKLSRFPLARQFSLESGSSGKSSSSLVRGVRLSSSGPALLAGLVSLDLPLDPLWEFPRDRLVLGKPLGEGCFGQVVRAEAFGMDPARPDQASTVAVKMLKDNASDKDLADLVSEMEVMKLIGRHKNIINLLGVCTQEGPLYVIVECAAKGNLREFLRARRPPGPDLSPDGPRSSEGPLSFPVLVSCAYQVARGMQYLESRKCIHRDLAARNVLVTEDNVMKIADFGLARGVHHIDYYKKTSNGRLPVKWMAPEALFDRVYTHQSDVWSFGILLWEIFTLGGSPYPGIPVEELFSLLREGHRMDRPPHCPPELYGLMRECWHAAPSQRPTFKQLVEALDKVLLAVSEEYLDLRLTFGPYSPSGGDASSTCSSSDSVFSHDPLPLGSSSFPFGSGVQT
A further experiment has as its target FGFR2 (Homo sapiens (Human), UniProt P21802). The method, boiled down: as §1

FGFR3, sequence (P22607 23-806): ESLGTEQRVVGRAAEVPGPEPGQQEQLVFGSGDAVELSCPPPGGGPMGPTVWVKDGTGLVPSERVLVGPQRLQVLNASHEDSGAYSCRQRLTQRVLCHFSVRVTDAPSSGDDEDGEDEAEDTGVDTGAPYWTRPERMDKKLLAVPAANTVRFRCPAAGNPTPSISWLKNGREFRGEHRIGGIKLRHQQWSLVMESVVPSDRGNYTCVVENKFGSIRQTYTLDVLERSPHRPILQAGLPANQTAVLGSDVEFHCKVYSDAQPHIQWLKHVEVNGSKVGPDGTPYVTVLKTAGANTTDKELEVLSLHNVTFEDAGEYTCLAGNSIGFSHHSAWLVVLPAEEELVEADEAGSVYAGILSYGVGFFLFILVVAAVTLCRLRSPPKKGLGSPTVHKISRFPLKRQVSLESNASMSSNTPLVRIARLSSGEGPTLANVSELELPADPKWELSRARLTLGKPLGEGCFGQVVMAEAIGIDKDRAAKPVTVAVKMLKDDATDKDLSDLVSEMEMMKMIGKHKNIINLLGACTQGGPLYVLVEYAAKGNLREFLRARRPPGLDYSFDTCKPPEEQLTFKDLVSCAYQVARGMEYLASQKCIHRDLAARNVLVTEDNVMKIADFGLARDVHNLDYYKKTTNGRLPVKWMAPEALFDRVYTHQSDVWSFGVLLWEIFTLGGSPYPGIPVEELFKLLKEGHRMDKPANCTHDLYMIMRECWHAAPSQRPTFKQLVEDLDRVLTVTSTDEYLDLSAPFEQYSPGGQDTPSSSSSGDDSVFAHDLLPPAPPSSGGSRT
FGFR2, sequence (P21802 22-821): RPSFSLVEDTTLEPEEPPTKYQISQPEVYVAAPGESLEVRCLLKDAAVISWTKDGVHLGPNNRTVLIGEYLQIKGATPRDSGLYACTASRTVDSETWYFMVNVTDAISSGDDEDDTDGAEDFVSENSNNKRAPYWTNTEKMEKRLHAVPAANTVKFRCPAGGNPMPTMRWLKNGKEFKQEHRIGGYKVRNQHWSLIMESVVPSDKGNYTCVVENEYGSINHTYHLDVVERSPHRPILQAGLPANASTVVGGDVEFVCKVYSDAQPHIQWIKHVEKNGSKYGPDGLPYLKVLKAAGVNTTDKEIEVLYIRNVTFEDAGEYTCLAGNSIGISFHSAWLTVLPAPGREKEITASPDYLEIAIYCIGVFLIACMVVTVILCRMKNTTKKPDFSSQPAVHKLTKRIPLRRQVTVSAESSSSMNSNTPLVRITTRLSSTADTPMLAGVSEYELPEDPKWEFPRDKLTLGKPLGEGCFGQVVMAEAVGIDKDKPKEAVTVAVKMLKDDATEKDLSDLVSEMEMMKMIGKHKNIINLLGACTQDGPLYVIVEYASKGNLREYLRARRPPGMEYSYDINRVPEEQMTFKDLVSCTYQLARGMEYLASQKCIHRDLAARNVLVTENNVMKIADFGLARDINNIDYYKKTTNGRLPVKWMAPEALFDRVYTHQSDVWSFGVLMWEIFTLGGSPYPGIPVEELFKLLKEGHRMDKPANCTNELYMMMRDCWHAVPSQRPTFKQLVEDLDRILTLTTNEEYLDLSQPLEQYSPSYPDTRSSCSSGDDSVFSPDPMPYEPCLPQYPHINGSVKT
FGFR3 (V555M), sequence (P22607 23-806 V555M): as the sequence (P22607 23-806) above, with V533M counted along it
FGFR1, sequence (P11362 22-822): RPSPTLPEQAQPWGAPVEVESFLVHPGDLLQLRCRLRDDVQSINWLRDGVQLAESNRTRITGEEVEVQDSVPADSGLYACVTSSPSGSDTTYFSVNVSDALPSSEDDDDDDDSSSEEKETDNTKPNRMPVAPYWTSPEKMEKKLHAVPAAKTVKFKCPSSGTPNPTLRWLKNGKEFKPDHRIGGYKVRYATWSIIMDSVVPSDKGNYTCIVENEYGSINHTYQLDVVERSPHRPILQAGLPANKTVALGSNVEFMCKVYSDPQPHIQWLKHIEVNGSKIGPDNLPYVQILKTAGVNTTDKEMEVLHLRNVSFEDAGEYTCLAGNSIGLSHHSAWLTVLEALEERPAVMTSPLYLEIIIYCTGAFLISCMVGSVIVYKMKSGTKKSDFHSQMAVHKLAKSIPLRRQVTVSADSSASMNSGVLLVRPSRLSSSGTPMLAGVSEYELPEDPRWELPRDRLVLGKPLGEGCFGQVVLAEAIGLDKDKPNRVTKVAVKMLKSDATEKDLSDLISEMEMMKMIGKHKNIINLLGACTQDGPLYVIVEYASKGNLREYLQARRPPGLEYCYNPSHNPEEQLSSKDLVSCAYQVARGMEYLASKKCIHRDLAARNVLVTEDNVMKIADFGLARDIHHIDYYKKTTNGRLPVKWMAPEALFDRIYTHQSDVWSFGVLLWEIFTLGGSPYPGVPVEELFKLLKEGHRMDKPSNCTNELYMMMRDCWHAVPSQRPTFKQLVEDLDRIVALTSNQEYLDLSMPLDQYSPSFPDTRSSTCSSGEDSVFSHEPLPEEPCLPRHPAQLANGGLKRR

As a reminder, the Kd is the equilibrium constant for the complex coming apart. Consider `Cc1ncc(Cl)c([C@@H](C)Oc2ccc3[nH]nc(-c4cnc(N5CC6(C5)CN(S(C)(=O)=O)C6)c(F)c4)c3c2)c1Cl` [Example 244, 5-[(1R)-1-(3,5-dichloro-2-methyl-4-pyridyl)ethoxy]-3-[5-fluoro-6-(2-methylsulfonyl-2,6-diazaspiro[3.3]heptan-6-yl)-3-pyridyl]-1H-indazole], for which the Kd on FGFR3 (V555M) lay in the range of 1 to 20 nM; at FGFR3, 1 to 20 nM; on FGFR1, 20 to 100 nM; at FGFR4, 1 to 20 nM; at FGFR2, 20 to 100 nM.
As to `C[C@@H](Oc1ccc2[nH]nc(-c3ccc(N4CC5(CN(C(=O)C(F)(F)F)C5)C4)nc3)c2c1)c1c(Cl)cncc1Cl` [Example 245, 1-[6-[5-[5-[(1R)-1-(3,5-dichloro-4-pyridyl)ethoxy]-1H-indazol-3-yl]-2-pyridyl]-2,6-diazaspiro[3.3]heptan-2-yl]-2,2,2-trifluoro-ethanone], the Kd at FGFR3 (V555M), on FGFR3, on FGFR1, on FGFR4 and on FGFR2 was 1 to 20 nM each time.
On to `C[C@@H](Oc1ccc2[nH]nc(-c3ccc(N4CC5(C4)CN(S(C)(=O)=O)C5)nc3)c2c1)c1c(Cl)cnnc1Cl` [Example 246, (R)-5-(1-(3,5-dichloropyridazin-4-yl)ethoxy)-3-(6-(6-(methylsulfonyl)-2,6-diazaspiro[3.3]heptan-2-yl)pyridin-3-yl)-1H-indazole], for which the Kd on FGFR3 (V555M), at FGFR3, on FGFR1, at FGFR4 and on FGFR2 was 1 to 20 nM throughout.
Turning to `Cc1ncc(Cl)c([C@@H](C)Oc2ccc3[nH]nc(-c4ccc(N5CC6(CCC(O)C6)C5)nc4)c3c2)c1Cl` (stereo partly drawn) [Example 247, 2-[5-[5-[(1R)-1-(3,5-dichloro-2-methyl-4-pyridyl)ethoxy]-1H-indazol-3-yl]-2-pyridyl]-2-azaspiro[3.4]octan-6-ol], the Kd at FGFR3 (V555M) was 1 to 20 nM; at FGFR3, 1 to 20 nM; on FGFR1, 20 to 100 nM; at FGFR4 it was 1 to 20 nM; at FGFR2, 20 to 100 nM.
`Cc1cc(-c2n[nH]c3ccc(O[C@H](C)c4c(Cl)cncc4Cl)cc23)cnc1N1CC2(C1)CN(S(C)(=O)=O)C2` [Example 248, 5-[(1R)-1-(3,5-dichloro-4-pyridyl)ethoxy]-3-[5-methyl-6-(2-methylsulfonyl-2,6-diazaspiro[3.3]heptan-6-yl)-3-pyridyl]-1H-indazole]: the Kd on FGFR3 (V555M) was 1 to 20 nM; on FGFR3 it was 1 to 20 nM; at FGFR1 it was 20 to 100 nM; at FGFR4, 1 to 20 nM; on FGFR2, 20 to 100 nM.
For the molecule `C[C@@H](Oc1ccc2[nH]nc(-c3ccc(N4CC(C(F)(F)F)C4)nc3)c2c1)c1c(Cl)cncc1Cl` [Example 249, (R)-5-(1-(3,5-dichloropyridin-4-yl)ethoxy)-3-(6-(3-(trifluoromethyl)azetidin-1-yl)pyridin-3-yl)-1H-indazole], the Kd is 1 to 20 nM at FGFR3 (V555M); 1 to 20 nM at FGFR3; 20 to 100 nM on FGFR1; 1 to 20 nM at FGFR4; 20 to 100 nM at FGFR2.
Regarding `COc1cc2[nH]nc(-c3cnc(N4CC5(C4)CN(S(C)(=O)=O)C5)c(C)c3)c2cc1O[C@H](C)c1c(Cl)cncc1Cl` [Example 250, 5-[(1R)-1-(3,5-dichloro-4-pyridyl)ethoxy]-6-methoxy-3-[5-methyl-6-(2-methylsulfonyl-2,6-diazaspiro[3.3]heptan-6-yl)-3-pyridyl]-1H-indazole], the Kd on FGFR3 (V555M), at FGFR3, at FGFR1, at FGFR4 and on FGFR2 was 1 to 20 nM in each case.
As to `Cc1cc2[nH]nc(-c3ccc(N4CC5(C4)CN(S(C)(=O)=O)C5)nc3)c2cc1O[C@H](C)c1c(Cl)cncc1Cl` [Example 251, (R)-5-(1-(3,5-dichloropyridin-4-yl)ethoxy)-6-methyl-3-(6-(6-(methylsulfonyl)-2,6-diazaspiro[3.3]heptan-2-yl)pyridin-3-yl)-1H-indazole], the equilibrium dissociation constant (Kd) at FGFR3 (V555M), on FGFR3, on FGFR1, at FGFR4 and on FGFR2 was 1 to 20 nM throughout.
Turning to `C[C@@H](Oc1ccc2[nH]nc(-c3ccc(N4CC(C(F)F)C4)nc3)c2c1)c1c(Cl)cncc1Cl` [Example 252, (R)-5-(1-(3,5-dichloropyridin-4-yl)ethoxy)-3-(6-(3-(difluoromethyl)azetidin-1-yl)pyridin-3-yl)-1H-indazole], the Kd was in the range of 1 to 20 nM on FGFR3 (V555M); 1 to 20 nM on FGFR3; 20 to 100 nM at FGFR1; 1 to 20 nM at FGFR4; 20 to 100 nM on FGFR2.
Take `C[C@@H](Oc1ccc2[nH]nc(-c3ccc(N4CC(C#N)C4)nc3)c2c1)c1c(Cl)cncc1Cl` [Example 253, (R)-1-(5-(5-(1-(3,5-dichloropyridin-4-yl)ethoxy)-1H-indazol-3-yl)pyridin-2-yl)azetidine-3-carbonitrile]: the Kd on FGFR3 (V555M), at FGFR3, at FGFR1, at FGFR4 and at FGFR2 was 1 to 20 nM throughout.
`Cc1cc2[nH]nc(-c3cnc(N4CC5(C4)CN(S(C)(=O)=O)C5)c(F)c3)c2cc1O[C@@H](C)c1c(Cl)cnnc1Cl` [Example 254, (S)-5-(1-(3,5-dichloropyridazin-4-yl)ethoxy)-3-(5-fluoro-6-(6-(methylsulfonyl)-2,6-diazaspiro[3.3]heptan-2-yl)pyridin-3-yl)-6-methyl-1H-indazole]: the Kd is 1 to 20 nM at FGFR3 (V555M); 20 to 100 nM at FGFR3; greater than 300 nM on FGFR1; greater than 300 nM at FGFR4; 100 to 300 nM at FGFR2.
With `C[C@@H](Oc1cc2c(-c3ccc(N4CC5(C4)CN(S(C)(=O)=O)C5)nc3)n[nH]c2cc1F)c1c(Cl)cncc1Cl` [Example 255, (R)-5-(1-(3,5-dichloropyridin-4-yl)ethoxy)-6-fluoro-3-(6-(6-(methylsulfonyl)-2,6-diazaspiro[3.3]heptan-2-yl)pyridin-3-yl)-1H-indazole], the dissociation constant (Kd) on FGFR3 (V555M), at FGFR3, at FGFR1, on FGFR4 and on FGFR2 was 1 to 20 nM each time.
`C[C@@H](Oc1cc2c(-c3cnc(N4CC5(C4)CN(S(C)(=O)=O)C5)c(F)c3)n[nH]c2cc1F)c1c(Cl)cncc1Cl` [Example 256, 5-[(1R)-1-(3,5-dichloro-4-pyridyl)ethoxy]-6-fluoro-3-[5-fluoro-6-(2-methylsulfonyl-2,6-diazaspiro[3.3]heptan-6-yl)-3-pyridyl]-1H-indazole]: the Kd at FGFR3 (V555M), on FGFR3, at FGFR1, on FGFR4 and on FGFR2 was 1 to 20 nM throughout.
As to `C[C@@H](Oc1ccc2[nH]nc(-c3ccc(N4CC(C)(N)C4)nc3)c2c1)c1c(Cl)cncc1Cl` [Example 257, (R)-1-(5-(5-(1-(3,5-dichloropyridin-4-yl)ethoxy)-1H-indazol-3-yl)pyridin-2-yl)-3-methylazetidin-3-amine], the Kd on FGFR3 (V555M), at FGFR3, at FGFR1, at FGFR4 and at FGFR2 was 1 to 20 nM each time.
Consider `C[C@@H](Oc1cc2c(-c3cnc(N4CC5(C4)CN(S(C)(=O)=O)C5)c(F)c3)n[nH]c2cc1F)c1c(Cl)cnnc1Cl` [Example 258, (R)-5-(1-(3,5-dichloropyridazin-4-yl)ethoxy)-6-fluoro-3-(5-fluoro-6-(6-(methylsulfonyl)-2,6-diazaspiro[3.3]heptan-2-yl)pyridin-3-yl)-1H-indazole], for which the Kd at FGFR3 (V555M), on FGFR3, on FGFR1, on FGFR4 and at FGFR2 was 1 to 20 nM throughout.
For the molecule `Cc1cc2[nH]nc(-c3cnc(N4CC5(C4)CN(S(C)(=O)=O)C5)c(F)c3)c2cc1O[C@H](C)c1c(Cl)cnnc1Cl` [Example 259, (R)-5-(1-(3,5-dichloropyridazin-4-yl)ethoxy)-3-(5-fluoro-6-(6-(methylsulfonyl)-2,6-diazaspiro[3.3]heptan-2-yl)pyridin-3-yl)-6-methyl-1H-indazole], the Kd at FGFR3 (V555M), on FGFR3, at FGFR1, at FGFR4 and on FGFR2 was 1 to 20 nM throughout.
Turning to `C[C@@H](Oc1cc2c(-c3ccc(N4CC5(C4)CN(S(C)(=O)=O)C5)nc3)n[nH]c2cc1Cl)c1c(Cl)cncc1Cl` [Example 260, (R)-6-chloro-5-(1-(3,5-dichloropyridin-4-yl)ethoxy)-3-(6-(6-(methylsulfonyl)-2,6-diazaspiro[3.3]heptan-2-yl)pyridin-3-yl)-1H-indazole], the Kd on FGFR3 (V555M), on FGFR3, on FGFR1, on FGFR4 and at FGFR2 was 1 to 20 nM in each case.
Take `COc1cc2[nH]nc(-c3ccc(N4CC5(C4)CN(S(C)(=O)=O)C5)nc3)c2cc1O[C@H](C)c1c(Cl)cnnc1Cl` [Example 261, (R)-5-(1-(3,5-dichloropyridazin-4-yl)ethoxy)-6-methoxy-3-(6-(6-(methylsulfonyl)-2,6-diazaspiro[3.3]heptan-2-yl)pyridin-3-yl)-1H-indazole]: the Kd at FGFR3 (V555M), at FGFR3, on FGFR1, on FGFR4 and on FGFR2 was 1 to 20 nM in each case.
